We go through 25 compounds from patent US9732094B2, “Arylquinazolines” (Merck Patent GmbH, priority 2013, dated 2017).

The target of one data set is Kv11.1 (hERG) (Homo sapiens (Human), UniProt Q12809). Put plainly: Kv11.1 (hERG) ion channel activity (patch clamp assay), HEK293 cells transfected with hERG gene. Background: hERG is a cardiac potassium channel; its block is linked to QT prolongation.
Data set [1] deals with DNA-PK phosphorylation at serine 2056 (Homo sapiens (Human), UniProt P78527). Kind of data set: DNA-PK phosphorylation at serine 2056 (cellular), bleomycin-treated HCT116 cells, ELISA. The data set is classed as cell-based. The following applies: read-out: IC50 pDNA-PK. The essentials:
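HCT116 cells were treated with 10 μM bleomycin plus test compounds for six hours at 37 °C. Phospho-Ser2056 DNA-PK measured by chemiluminescent ELISA, normalised to total DNA-PKcs signal; DMSO control as blank.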

The next data set concerns the target DNA-PK (Homo sapiens (Human), UniProt P78527). Put plainly: DNA-PK assay (biochemical), flashplate 33P-ATP kinase assay. The essentials:
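Radiometric kinase reaction in streptavidin-coated flashplates, stopped with 200 mM EDTA, then 30 min room-temperature incubation and saline washes.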

The mark [2] stands for this setting: read-out: Ki [Kv1.11 hERG], hERG patch clamp assay (cells without asterisk).
Where [3] appears, read: cellular DNA-PK phosphorylation at serine 2056, HCT116.
Setting [4] is: read-out: Ki [Kv1.11 hERG], patch clamp, HEK293 transfected with hERG gene.
Where [5] appears, read: cellular, HCT116 cells, 10 μM bleomycin, six hours.
Where [6] appears, read: Ki [Kv1.11 hERG], hERG patch clamp assay (cells without asterisk).
The mark [7] stands for this setting: Ki [Kv1.11 hERG], patch clamp, HEK293 transfected with hERG gene.

Structures are written as SMILES. pIC50, pKi: −log10 of the molar value. Where two headings read alike, the source gives them in different places.

Kv11.1 (hERG), sequence (Q12809 whole entry): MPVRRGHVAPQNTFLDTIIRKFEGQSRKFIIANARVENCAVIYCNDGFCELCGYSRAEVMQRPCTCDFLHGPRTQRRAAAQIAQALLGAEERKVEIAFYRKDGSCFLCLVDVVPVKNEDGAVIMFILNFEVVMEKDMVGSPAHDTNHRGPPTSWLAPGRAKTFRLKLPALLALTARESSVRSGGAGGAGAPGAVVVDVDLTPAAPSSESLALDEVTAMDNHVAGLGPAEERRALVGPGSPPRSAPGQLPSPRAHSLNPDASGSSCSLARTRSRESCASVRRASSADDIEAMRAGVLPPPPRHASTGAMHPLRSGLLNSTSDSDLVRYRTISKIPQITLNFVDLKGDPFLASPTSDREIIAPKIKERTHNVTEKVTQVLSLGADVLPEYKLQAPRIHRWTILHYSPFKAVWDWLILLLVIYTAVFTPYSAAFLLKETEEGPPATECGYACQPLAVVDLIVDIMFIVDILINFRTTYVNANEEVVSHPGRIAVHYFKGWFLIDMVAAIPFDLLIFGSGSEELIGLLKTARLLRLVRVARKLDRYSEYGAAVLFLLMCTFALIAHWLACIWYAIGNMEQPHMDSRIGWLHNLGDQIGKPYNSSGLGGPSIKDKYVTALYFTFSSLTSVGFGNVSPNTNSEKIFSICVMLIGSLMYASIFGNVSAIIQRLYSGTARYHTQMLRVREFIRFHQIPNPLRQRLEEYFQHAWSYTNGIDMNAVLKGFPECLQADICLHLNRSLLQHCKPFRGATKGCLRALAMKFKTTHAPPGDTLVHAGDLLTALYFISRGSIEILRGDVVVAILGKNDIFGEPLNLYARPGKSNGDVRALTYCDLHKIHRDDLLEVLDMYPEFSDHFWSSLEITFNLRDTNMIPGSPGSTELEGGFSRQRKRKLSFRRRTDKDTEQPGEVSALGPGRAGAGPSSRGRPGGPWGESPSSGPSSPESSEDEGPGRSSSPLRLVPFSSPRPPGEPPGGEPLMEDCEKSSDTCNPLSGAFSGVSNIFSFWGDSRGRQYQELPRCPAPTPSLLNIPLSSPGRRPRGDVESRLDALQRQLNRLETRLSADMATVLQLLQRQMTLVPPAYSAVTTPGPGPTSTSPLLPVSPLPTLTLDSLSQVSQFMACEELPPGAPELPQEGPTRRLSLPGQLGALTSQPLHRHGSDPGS

In general, pKi refers to the negative decadic logarithm of the Ki, by convention in mol/L. A word on the pIC50: it is −log10 of the IC50, conventionally taken in molar units. Regarding `Cn1c(C(C(N)=O)c2cc(-c3ncnc4cc(N5CCOCC5)ccc34)c(F)cc2Cl)cccc1=O` (stereo not drawn) [Example 312, 2-[2-Chloro-4-fluoro-5-(7-morpholin-4-yl-quinazolin-4-yl)-phenyl]-2-(1-methyl-6-oxo-1,6-dihydro-pyridin-2-yl)-acetamide], at Kv11.1 (hERG) (setting [2]), the pKi was less than 4.60. The pIC50 is 4.52 to 5.00 in data set [1] (setting [3]) and less than 7.52 against DNA-PK (biochemical DNA-PK assay).

As to `OC(c1ccc(F)c(-c2ncnc3cc(N4CCOCC4)ccc23)c1)c1ncccc1OC(F)F` (stereo not drawn) [Example 81, (3-Difluoromethoxy-pyridin-2-yl)-[4-fluoro-3-(7-morpholin-4-yl-quinazolin-4-yl)-phenyl]methanol], the pKi on Kv11.1 (hERG) (setting [4]) is less than 4.60. The pIC50 is greater than 6.30 in data set [1] (setting [5]) and greater than 8.52 against DNA-PK (enzymatic, 5 μM ATP).

As for `[2H]C1([2H])OC([2H])([2H])C([2H])([2H])N(c2ccc3c(-c4cc(C(O)c5nccnc5OC)c(Cl)cc4F)ncnc3c2)C1([2H])[2H]` (stereo not drawn) [Example 242, [2-Chloro-4-fluoro-5-[7-(2,2,3,3,5,5,6,6-octadeuteriomorpholin-4-yl)quinazolin-4-yl]phenyl]-(3-methoxypyrazin-2-yl)methanol], on Kv11.1 (hERG) (setting [6]), the pKi is 4.60 to 4.82. In addition, the pIC50 is greater than 6.30 in data set [1] (setting [3]) and greater than 8.52 against DNA-PK (biochemical DNA-PK assay).

As for `CN(C)c1ccc(C(O)c2ccc(F)c(-c3ncnc4cc(N5CCOCC5)ccc34)c2)nn1` (stereo not drawn) [Example 68, (6-Dimethylamino-pyridazin-3-yl)-[4-fluoro-3-(7-morpholin-4-yl-quinazolin-4-yl)phenyl]-methanol], at Kv11.1 (hERG) (setting [4]), the pKi was less than 4.60. The negative logarithm of the IC50 (pIC50) in data set [1] (setting [5]) was 5.00 to 5.30; at DNA-PK (enzymatic, 5 μM ATP), 8.15 to 8.52.

In the case of `COc1ccc(C(O)c2cc(-c3ncnc4cc(N5CCOCC5)cnc34)c(F)cc2Cl)nn1` (stereo not drawn) [Example 227, [2-Chloro-4-fluoro-5-(7-morpholin-4-yl-pyrido[3,2-d}-pyrimidin-4-yl)-phenyl]-(6-methoxy-pyridazin-3-yl)-methanol], the pKi at Kv11.1 (hERG) (setting [2]) was less than 4.60. Further, the pIC50 was 5.30 to 6.30 in data set [1] (setting [3]) and 8.15 to 8.52 at DNA-PK (biochemical DNA-PK assay).

In turn, `OC(c1ccc(F)c(-c2ncnc3cc(N4CCOCC4)ccc23)c1)c1c(F)cncc1Cl` (stereo not drawn) [Example 77, (3-Chloro-5-fluoro-pyridin-4-yl)-[4-fluoro-3-(7-morpholin-4-yl-quinazolin-4-yl)phenyl]-methanol] showed a pKi on Kv11.1 (hERG) (setting [7]) of 4.82 to 5.00. For the same compound, the pIC50 was greater than 6.30 in data set [1] (setting [5]) and 8.15 to 8.52 on DNA-PK (enzymatic, 5 μM ATP).

`COC(c1ccc(F)c(-c2ncnc3cc(N4CCOCC4)ccc23)c1)c1nccnc1C` (stereo not drawn) [Example 353, 4-{2-Fluoro-5-[methoxy-(3-methyl-pyrazin-2-yl)methyl]-phenyl}-7-morpholin-4-ylquinazoline]: at Kv11.1 (hERG) (setting [2]), the pKi is less than 4.60. Also, the pIC50 in data set [1] (setting [3]) was 4.52 to 5.00; against DNA-PK (biochemical DNA-PK assay) it was 7.52 to 8.15.

Turning to `Cc1cnc(C(C(N)=O)c2ccc(F)c(-c3ncnc4cc(N5CCOCC5)ccc34)c2)c(C)n1` (stereo not drawn) [Example 318, 2-(3,5-Dimethyl-pyrazin-2-yl)-2-[4-fluoro-3-(7-morpholin-4-yl-quinazolin-4-yl)-phenyl]acetamide], the negative logarithm of the Ki (pKi) on Kv11.1 (hERG) (setting [2]) was less than 4.60. Also, the pIC50 was 4.52 to 5.00 in data set [1] (setting [3]) and 7.52 to 8.15 at DNA-PK (biochemical DNA-PK assay).

For `OC(c1ccc(F)c(-c2ncnc3cc(N4CCOCC4)sc23)c1)c1nccnc1Cl` (stereo not drawn) [Example 37, (3-Chloropyrazin-2-yl)-[4-fluoro-3-(6-morpholin-4-ylthieno[3,2-d]pyrimidin-4-yl)phenyl]-methanol], on Kv11.1 (hERG) (setting [7]), the pKi was 4.82 to 5.00. Also, the negative-log IC50 (pIC50) in data set [1] (setting [5]) was greater than 6.30; against DNA-PK (enzymatic, 5 μM ATP), greater than 8.52.

Regarding `CNCc1csc(C(O)c2cc(-c3ncnc4cc(N5CCOCC5)ccc34)c(F)cc2Cl)n1` (stereo not drawn) [Example 143, [2-Chloro-4-fluoro-5-(7-morpholin-4-ylquinazolin-4-yl)phenyl]-(4-methylaminomethylthiazol-2-yl)methanol], at Kv11.1 (hERG) (Ki [Kv1.11 hERG], Table 5), the pKi was 4.82 to 5.00. Besides, the pIC50 in data set [1] (Table 5, HCT116 cells) is 5.00 to 5.30; on DNA-PK (Table 5) it was 7.52 to 8.15.

As for `Cc1cccnc1C(O)c1ccc(F)c(-c2ncnc3cc(N4CCOCC4)ccc23)c1` (stereo not drawn) [Example 472, [4-Fluoro-3-(7-morpholin-4-yl-quinazolin-4-yl)-phenyl]-(3-methyl-pyridin-2-yl)methanol], on Kv11.1 (hERG) (setting [2]), the pKi is less than 4.60. For the same compound, the pIC50 was greater than 6.30 in data set [1] (setting [3]) and 8.15 to 8.52 on DNA-PK (biochemical DNA-PK assay).

For `O=c1ccc(C(O)c2ccc(F)c(-c3ncnc4cc(N5CCOCC5)ccc34)c2)n[nH]1` (stereo not drawn) [Example 76, 6-{[4-Fluoro-3-(7-morpholin-4-yl-quinazolin-4-yl)phenyl]-hydroxymethyl}-2H-pyridazin-3-one], the pKi at Kv11.1 (hERG) (setting [4]) is less than 4.60. The pIC50 is 5.30 to 6.30 in data set [1] (setting [5]) and greater than 8.52 against DNA-PK (enzymatic, 5 μM ATP).

Regarding `Cc1nccnc1C(C(N)=O)c1ccc(F)c(-c2ncnc3cc(N4CCOCC4)ccc23)c1` (stereo not drawn) [Example 327, 2-[4-Fluoro-3-(7-morpholin-4-yl-quinazolin-4-yl)-phenyl]-2-{3-methyl-pyrazin-2-yl)-acetamide], on Kv11.1 (hERG) (setting [2]), the pKi was less than 4.60. Besides, the pIC50 in data set [1] (setting [3]) is 4.52 to 5.00; against DNA-PK (biochemical DNA-PK assay), 7.52 to 8.15.

Regarding `Cc1cc(F)c(-c2ncnc3cc(N4CCOCC4)ccc23)cc1C(O)c1nccs1` (stereo not drawn) [Example 209, [4-Fluoro-2-methyl-5-(7-morpholin-4-yl-quinazolin-4-yl)-phenyl]thiazol-2-ylmethanol], the pKi at Kv11.1 (hERG) (setting [4]) is less than 4.60. For the same compound, the pIC50 was 4.52 to 5.00 in data set [1] (setting [5]) and less than 7.52 at DNA-PK (enzymatic, 5 μM ATP).

In the case of `COc1cnc(C(O)c2ccc(F)c(-c3ncnc4cc(N5CCOCC5)ccc34)c2)cn1` (stereo not drawn) [Example 53, [4-Fluoro-3-(7-morpholin-4-yl-quinazolin-4-yl)phenyl]-(5-methoxy-pyrazin-2-yl)methanol], the negative-log Ki (pKi) at Kv11.1 (hERG) (setting [4]) is less than 4.60. Moreover, the pIC50 was 5.00 to 5.30 in data set [1] (setting [5]) and 8.15 to 8.52 against DNA-PK (enzymatic, 5 μM ATP).

Consider `COc1nccnc1C(O)c1cc(-c2ncnc3cc(N4CCOCC4)ccc23)c(F)cc1F` (stereo not drawn) [Example 467, [2,4-Difluoro-5-(7-morpholin-4-yl-quinazolin-4-yl)-phenyl]-(3-methoxy-pyrazin-2-yl)-methanol], for which the pKi on Kv11.1 (hERG) (setting [2]) was less than 4.60. In addition, the pIC50 in data set [1] (setting [3]) was greater than 6.30; on DNA-PK (biochemical DNA-PK assay) it was 8.15 to 8.52.

Consider `NC(=O)C(c1ccc(F)c(-c2ncnc3cc(N4CCOCC4)ccc23)c1)c1nnc(Cl)c2ccsc12` (stereo not drawn) [Example 290, 2-(4-Chlorothieno-[2,3-d}pyridazin-7-yl)-2-[4-fluoro-3-(7-morpholin-4-yl-quinazolin-4-yl)-phenyl]acetamide], for which the pKi on Kv11.1 (hERG) (setting [2]) is greater than 5.00. Moreover, the results for the pIC50 (in data set [1] (setting [3]); against DNA-PK (biochemical DNA-PK assay)) were 5.00 to 5.30 and 8.15 to 8.52, respectively.

The compound `OC(c1ccc(F)c(-c2ncnc3cc(N4CCOCC4)ccc23)c1)c1c(Cl)cncc1Cl` (stereo not drawn) [Example 17, (3,5-Dichloro-pyridin-4-yl)-[4-Fluoro-3-(7-morpholin-4-yl-quinazolin-4-yl)phenyl]-methanol] gave a pKi at Kv11.1 (hERG) (setting [7]) of 4.82 to 5.00. The pIC50 in data set [1] (setting [5]) was 5.30 to 6.30; against DNA-PK (enzymatic, 5 μM ATP) it was 8.15 to 8.52.

In the case of `OC(c1cc(-c2ncnc3cc(N4CCOCC4)ccc23)c(F)cc1Cl)c1nccn2ccnc12` (stereo not drawn) [Example 397, [2-Chloro-4-fluoro-5-(7-morpholin-4-yl-quinazolin-4-yl)-phenyl]imidazo-[1,2-a]pyrazin-8-yl-methanol], the pKi at Kv11.1 (hERG) (setting [2]) is less than 4.60. In addition, the results for the pIC50 (in data set [1] (setting [3]); on DNA-PK (biochemical DNA-PK assay)) were greater than 6.30 and 8.15 to 8.52, respectively.

`OC(c1ccccn1)c1cc(-c2ncnc3cc(N4CCOCC4)ccc23)c(F)cc1F` (stereo not drawn) [Example 218, [2,4-Difluoro-5-(7-morpholin-4-yl-quinazolin-4-yl)-phenyl]pyridin-2-yl-methanol] had a pKi on Kv11.1 (hERG) (Ki [Kv1.11 hERG], Table 7) of 4.60 to 4.82. For the same compound, the pIC50 in data set [1] (Table 7, HCT116 cells) is greater than 6.30; at DNA-PK (Table 7), 8.15 to 8.52.

On to `Cc1cc(F)c(-c2ncnc3cc(N4CCOCC4)ccc23)cc1C(O)c1nccs1` (stereo not drawn) [Example 207, [4-Fluoro-2-methyl-5-(7-morpholinylquinazolin-4-yl)phenyl]thiazol-2-ylmethanol], for which, at Kv11.1 (hERG) (setting [7]), the pKi was 4.60 to 4.82. Moreover, the pIC50 in data set [1] (setting [5]) is 5.30 to 6.30; at DNA-PK (enzymatic, 5 μM ATP), greater than 8.52.

For `OC(c1cc(-c2ncnc3cc(N4CCOCC4)ccc23)c(F)cc1F)c1nccn2cccc12` (stereo not drawn) [Example 358, [2,4-Difluoro-5-(7-morpholin-4-yl-quinazolin-4-yl)-phenyl]pyrrolo[1,2-a]-pyrazin-1-ylmethanol], the pKi at Kv11.1 (hERG) (setting [6]) was 4.82 to 5.00. The pIC50 in data set [1] (setting [3]) is greater than 6.30; against DNA-PK (biochemical DNA-PK assay), greater than 8.52.

On to `COc1ccc(C(O)c2ccc(F)c(-c3ncnc4cc(N5CCOCC5)ccc34)c2)nn1` (stereo not drawn) [Example 74, [4-Fluoro-3-(7-morpholin-4-yl-quinazolin-4-yl)phenyl]-(6-methoxypyridazin-3-yl)methanol], for which, on Kv11.1 (hERG) (setting [4]), the pKi is less than 4.60. Also, the pIC50 in data set [1] (setting [5]) is greater than 6.30; on DNA-PK (enzymatic, 5 μM ATP), greater than 8.52.

For the compound `COc1nccnc1C(O)c1cc(-c2ncnc3cc(N4CCOCC4)ccc23)ccc1Cl` (stereo not drawn) [Example 422, [2-Chloro-5-(7-morpholin-4-yl-quinazolin-4-yl)-phenyl]-(3-methoxy-pyrazin-2-yl)-methanol], on Kv11.1 (hERG) (setting [2]), the pKi is 4.82 to 5.00. Moreover, the pIC50 in data set [1] (setting [3]) was 5.30 to 6.30; at DNA-PK (biochemical DNA-PK assay) it was 8.15 to 8.52.

In the case of `OC(c1ccc2nccn2n1)c1cc(-c2ncnc3cc(N4CCOCC4)ccc23)c(F)cc1Cl` (stereo not drawn) [Example 57, [2-Chloro-4-fluoro-5-(7-morpholin-4-yl-quinazolin-4-yl)phenyl]-imidazo[1,2-b]pyridazin-6-ylmethanol], on Kv11.1 (hERG) (setting [4]), the pKi is 4.82 to 5.00. Further, the negative logarithm of the IC50 (pIC50) in data set [1] (setting [5]) is greater than 6.30; against DNA-PK (enzymatic, 5 μM ATP) it was greater than 8.52.
